# Data reported in PMC8158245, “Novel chalcone/aryl carboximidamide hybrids as potent anti-inflammatory via inhibition of prostaglandin E2 and inducible NO synthase activities: design, synthesis, molecular docking studies and ADMET prediction” (Journal of Enzyme Inhibition and Medicinal Chemistry, 2021).
# “And” between values parts separate entries of the source, which are not always exact repeats. Identical values can stand only once.
# How the values were obtained:
# [1] = test system: LPS-induced NO production in RAW 264.7 cells; experiment: Griess assay for NO release from LPS-stimulated RAW 264.7 cells; format: cell-based; conditions: Mus musculus, RAW264.7; for inhibition at 5 µM: compounds at 5 µM, 2 h before LPS, RAW 264.7 cells, read-out: NO Inhibition rates (%) ± SD; for IC50: LPS-induced RAW 264.7 cells
# Procedure: Equal volumes of Griess reagent and the supernatant, obtained from treated RAW264.7 cells with the compounds 2 h before LPS induction, were mixed for 10 min at room temperature in the dark. The absorbance was measured at 540 nm using ELISA plate reader and the nitrite concentration was calculated from sodium nitrite standard curve. The percentage inhibition (%) is calculated as absorbance at 540 nm of (LPS-compounds)/absorbance at 540 nm of (LPS-control) ×100[47]^,[48].
# [2] = test system: carrageenan-induced paw edoema; experiment: Carrageenan-induced rat paw edoema; format: in vivo, Wistar albino rats; conditions: rat, 50 mg/kg oral; for % of edoema inhibition (% mean ± SEM), 3 h: 3 h after carrageenan; for % of edoema inhibition (% mean ± SEM), 1 h: 1 h after carrageenan; for % of edoema inhibition (% mean ± SEM), 2 h: 2 h after carrageenan; for % of edoema inhibition (% mean ± SEM), 4 h: 4 h after carrageenan
# Procedure: The anti-inflammatory activity of the inspiring active compounds in vitro (4c, 4d, 6a, 6c, 6d and 6e) were further estimated in vivo using the carrageenan-induced paw edoema test. […] The paw thickness was assessed using Vernier calliper after carrageenan injection for 1,2, 3 and 4 h. Wistar albino rats (males weighing 120–140 g, six rats per group) were grouped as follows: Group 1 (Control) rats were received the vehicle. […] The percentage inhibition of edoema thickness was calculated at each time interval in comparison to the control group.
# [3] = MTT cytotoxicity assay on RAW 264.7 cells; format: cell-based; conditions: mouse; for IC50 at 20 h: with LPS; for IC50: without LPS
# Procedure: MTT assay was used to assess the cell viability of RAW 264.7 cells cultured in RPMI-1640 complete media. […] Afterwards, 5 µl of MTT solution were added and incubated for further 4 h. Finally, 150 ul of dimethyl sulfoxide (DMSO) were added and the optical density was assessed at 570 nm using an ELISA plate reader.
# iNOS = biological target: T1, iNOS (Mus musculus, UniProt P29477); experiment: iNOS enzymatic activity in LPS-induced RAW 264.7 cells; format: cell-based
# T1 construct: endogenous in cells; host or cells: RAW 264.7 cells induced with LPS
# T1 sequence (P29477 1-1144): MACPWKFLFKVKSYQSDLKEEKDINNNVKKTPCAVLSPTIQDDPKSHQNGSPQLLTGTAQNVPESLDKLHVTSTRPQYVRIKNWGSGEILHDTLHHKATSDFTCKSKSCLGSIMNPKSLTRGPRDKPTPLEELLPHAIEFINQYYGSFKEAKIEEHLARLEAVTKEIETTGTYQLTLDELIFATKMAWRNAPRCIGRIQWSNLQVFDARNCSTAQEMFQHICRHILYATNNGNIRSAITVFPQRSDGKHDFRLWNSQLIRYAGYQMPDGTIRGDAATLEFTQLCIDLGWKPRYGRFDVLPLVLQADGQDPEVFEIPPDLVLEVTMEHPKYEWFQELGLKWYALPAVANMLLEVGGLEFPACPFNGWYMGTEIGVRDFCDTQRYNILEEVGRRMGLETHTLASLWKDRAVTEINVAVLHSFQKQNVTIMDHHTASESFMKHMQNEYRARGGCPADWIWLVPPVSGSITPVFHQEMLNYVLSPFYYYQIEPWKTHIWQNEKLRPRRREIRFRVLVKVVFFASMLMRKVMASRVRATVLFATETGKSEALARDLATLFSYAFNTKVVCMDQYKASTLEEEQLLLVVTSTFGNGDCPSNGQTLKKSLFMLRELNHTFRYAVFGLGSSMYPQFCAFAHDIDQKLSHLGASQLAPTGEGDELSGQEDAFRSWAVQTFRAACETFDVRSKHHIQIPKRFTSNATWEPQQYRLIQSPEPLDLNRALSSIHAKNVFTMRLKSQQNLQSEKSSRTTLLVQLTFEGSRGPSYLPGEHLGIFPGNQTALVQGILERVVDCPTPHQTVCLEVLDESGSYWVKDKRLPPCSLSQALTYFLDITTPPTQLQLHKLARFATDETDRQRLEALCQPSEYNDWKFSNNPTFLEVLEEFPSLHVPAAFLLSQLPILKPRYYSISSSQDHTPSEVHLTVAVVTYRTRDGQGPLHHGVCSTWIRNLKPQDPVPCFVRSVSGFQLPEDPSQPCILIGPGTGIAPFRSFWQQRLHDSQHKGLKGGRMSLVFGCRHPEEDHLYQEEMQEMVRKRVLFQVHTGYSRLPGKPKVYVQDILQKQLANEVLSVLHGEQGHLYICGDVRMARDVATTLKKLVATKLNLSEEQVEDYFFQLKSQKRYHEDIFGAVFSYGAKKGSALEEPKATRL
# Procedure: Then, the NOS assay reaction solution (100 µl/well) was added and incubated for an extra 2 h at 37 °C. The fluorescence with excitation wavelength at 485 nm and emission wavelength at 528 nm was measured using a fluorescent microplate reader.
# [4] = test system: PGE2 production in RAW 264.7 cells; experiment: PGE2 concentration by ELISA in LPS-treated RAW 264.7 cells; format: cell-based; conditions: Mus musculus, RAW264.7; LPS-induced RAW 264.7 cells
# Procedure: After seeding and incubation of RAW 264.7 cells for 24 h, then the cells were treated with the compounds (4c, 4d, 6a, 6c, 6d and 6e) at different concentrations and with LPS (1 µg/ml) for another 24 h. The concentration of prostaglandin E2 (PGE2) was measured in the culture media using ELISA kit (R&D Systems, Minneapolis, MN)[50].
# bovine COX-1 = biological target: T2, bovine COX-1 (Ovis aries, UniProt P05979); experiment: In vitro COX-1 inhibition assay (Cayman kit); format: biochemical
# T2 construct: purchased Cayman Chemical 560101
# T2 sequence (P05979 25-600): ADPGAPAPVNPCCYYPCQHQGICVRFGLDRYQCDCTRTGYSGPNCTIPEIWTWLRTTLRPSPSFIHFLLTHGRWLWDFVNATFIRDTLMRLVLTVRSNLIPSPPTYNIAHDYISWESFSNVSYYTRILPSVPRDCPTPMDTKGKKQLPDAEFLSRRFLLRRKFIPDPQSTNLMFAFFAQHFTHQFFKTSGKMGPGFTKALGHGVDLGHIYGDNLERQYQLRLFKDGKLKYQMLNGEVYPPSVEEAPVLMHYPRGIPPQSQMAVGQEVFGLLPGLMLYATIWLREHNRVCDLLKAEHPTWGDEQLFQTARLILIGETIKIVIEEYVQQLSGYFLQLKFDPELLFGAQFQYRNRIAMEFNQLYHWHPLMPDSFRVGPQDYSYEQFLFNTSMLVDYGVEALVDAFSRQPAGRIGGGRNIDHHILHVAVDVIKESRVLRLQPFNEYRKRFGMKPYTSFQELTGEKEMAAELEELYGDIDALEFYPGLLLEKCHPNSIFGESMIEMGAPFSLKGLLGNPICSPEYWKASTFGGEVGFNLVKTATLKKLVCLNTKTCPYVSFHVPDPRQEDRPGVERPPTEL
# COX-2 = experiment: In vitro COX-2 inhibition assay (Cayman kit); format: biochemical, bovine; conditions: selectivity index from COX 1 and COX 2 IC50
# [5] = listed as indomethacin, 50 mg/kg
SMILES,inhibition at 5 µM [1] [%],melting point [°C],"% of edoema inhibition (% mean ± SEM), 1 h [2] [%]","% of edoema inhibition (% mean ± SEM), 2 h [2] [%]","% of edoema inhibition (% mean ± SEM), 3 h ([2]; 50 mg/kg)","% of edoema inhibition (% mean ± SEM), 4 h ([2]; 50 mg/kg)",IC50 at 20 h [3] [µM],IC50 [3] [µM],IC50 [1] [µM],IC50 (iNOS) [µM],IC50 [4] [µM],also measured
"COc1ccc(/C=C/C(=O)c2ccc(OCC(=O)ON=C(N)c3ccc([N+](=O)[O-])cc3)cc2)cc1 [Compound 4e, N’-(2-{4-[(2E)-3-(4-Methoxyphenyl)prop-2-enoyl]phenoxy}acetoxy)-4-nitrobenzenecarboximidamide]",44.1 ± 2.8,184 to 186,,,,,,,,,,"% of edoema inhibition (% mean ± SEM), 3 h [2]: 39.26%"
"COc1ccc(/C=C/C(=O)c2ccc(OCC(=O)O/N=C(\N)c3ccccc3)cc2)cc1 [Compound 4a, N’-(2-{4-[(2E)-3-(4-Methoxyphenyl)prop-2-enoyl]phenoxy}acetoxy) benzenecarboximidamide]",41.9 ± 1.4,164 to 166,,,,,,,,,,
"COc1ccc(/C=C/C(=O)c2ccc(OCC(=O)O/N=C(\N)c3ccc4ccccc4c3)cc2)cc1 [Compound 4f, N’-(2-{4-[(2E)-3-(4-Methoxyphenyl)prop-2-enoyl]phenoxy}acetoxy) naphthalene-2-carboximidamide]",31.2 ± 2.2,176 to 178,,,,,,,,,,
"Cc1ccc(-c2cc(C(F)(F)F)nn2-c2ccc(S(N)(=O)=O)cc2)cc1 [Celecoxib, reference compound]",,,10.61 ± 2.59,25.43 ± 3.29,46.42 ± 2.87%,12.32 ± 2.42%,,,,,,"% of edoema inhibition (% mean ± SEM), 3 h [2]: 46.42%; % of edoema inhibition (% mean ± SEM), 4 h ([2]; listed as celecoxib, 50 mg/kg): 12.32%"
"COc1ccc(C(=O)/C=C/c2ccc(OCC(=O)ON=C(N)c3ccc(OC)cc3)cc2)cc1 [Compound 6c, N’-(2-{4-[(1E)-3-(4-Methoxyphenyl)-3-oxoprop-1-en-1-yl]phenoxy}acetoxy)-4-methoxybenzenecarboximidamide]",67.1 ± 2.4,,11.42 ± 1.75,28.44 ± 2.75,54.36% and 54.36 ± 2.34%,62.21% and 62.21 ± 3.46%,> 80,> 80,5.92,2.45,0.0275,IC50 (bovine COX-1): 64.4 ± 3.35 µM; SI (COX-2): 7.79
"COc1ccc(/C=C/C(=O)c2ccc(OCC(=O)ON=C(N)c3ccc(OC)cc3)cc2)cc1 [Compound 4c, N’-(2-{4-[(2E)-3-(4-Methoxyphenyl)prop-2-enoyl]phenoxy}acetoxy)-4-methoxybenzenecarboximidamide]",62.3 ± 1.9,,11.21 ± 2.41,33.62 ± 2.69,57.71% and 57.71 ± 2.21%,69.86% and 69.86 ± 3.51%,> 80,> 80,8.61,3.62,0.0323,IC50 (bovine COX-1): 19.9 ± 1.03 µM; SI (COX-2): 6.06
COc1ccc(C(=O)/C=C/c2ccc(OCC(=O)O/N=C(\N)c3ccc4ccccc4c3)cc2)cc1 [Compound 6f],29.4 ± 2.5,178 to 179,,,,,,,,,,
"COc1ccc(/C=C/C(=O)c2ccc(OCC(=O)ON=C(N)c3ccc(Cl)cc3)cc2)cc1 [Compound 4b, N’-(2-{4-[(2E)-3-(4-Methoxyphenyl)prop-2-enoyl]phenoxy}acetoxy)-4-chlorobenzenecarboximidamide]",47.6 ± 3.6,180 to 182,,,,,,,,,,
"COc1ccc2c(c1)c(CC(=O)O)c(C)n2C(=O)c1ccc(Cl)cc1 [Indomethacin, reference compound]",25.5,,28.03 ± 1.35,45.27 ± 2.48,63.71 ± 3.48%,56.27 ± 2.14%,> 80,> 80,45.7,24.6,0.0766,"% of edoema inhibition (% mean ± SEM), 3 h [2, 5]: 63.71%; % of edoema inhibition (% mean ± SEM), 4 h [2, 5]: 56.27%"
"COc1ccc(C(=O)/C=C/c2ccc(OCC(=O)ON=C(N)c3ccc(Cl)cc3)cc2)cc1 [Compound 6b, N’-(2-{4-[(1E)-3-(4-Methoxyphenyl)-3-oxoprop-1-en-1-yl]phenoxy}acetoxy) -4-chlorobenzenecarboximidamide]",49.6 ± 2.3,192 to 193,,,,,,,,,,
